Assay results published in publication PMC8371461 (Frontiers in Pharmacology, 2021).

Columns and labels:
PAK4 = molecular target: T1, PAK4 (Homo sapiens, UniProt O96013); experiment: kinome scan; type: binding; settings: 10 µM
T1 construct: purchased DiscoverX (KINOMEscan)

QSK = molecular target: T2, QSK (Homo sapiens, UniProt Q9Y2K2); experiment: kinome scan; type: binding; settings: 10 µM
T2 construct: purchased DiscoverX (KINOMEscan)

[1] = molecular target: Mitogen-activating protein kinase interacting Ser/Thr kinase (MNK2) (Homo sapiens, UniProt Q9HBH9); experiment: Dundee activity test; type: biochemical
From the text: (§1) In silico inverse screening is a ligand-driven methodology aiming at identifying a specific target for a given ligand. […] Table 2 contains for each kinase the name and acronym, the PDB identifier of the best-ranked structure, the ranking position in percent, the heavy atom RMSD of the co-crystallized ligand as a control, and the experimental confirmation from the kinome scan by Ambit Biosciences (http://www.ambitbio.com/) performed at the University of Dundee according to a previously described procedure ([Bain et al., 2003]).

[2] = molecular target: Proto-oncogen Ser/Thr kinase PIM1 (PIM1) (Homo sapiens, UniProt P11309); experiment: Dundee activity test; type: biochemical
From the text: as §1

RIOK1 = molecular target: T3, RIOK1 (Homo sapiens, UniProt Q9BRS2); experiment: kinome scan; type: binding; settings: 10 µM
T3 construct: purchased DiscoverX (KINOMEscan)

PDGFRB = molecular target: T4, PDGFRB (Homo sapiens, UniProt P09619); experiment: kinome scan; type: binding; settings: 10 µM
T4 construct: purchased DiscoverX (KINOMEscan)

PRKCE = molecular target: T5, PRKCE (Homo sapiens, UniProt Q02156); experiment: kinome scan; type: binding; settings: 10 µM
T5 construct: purchased DiscoverX (KINOMEscan)

BIKE = molecular target: T6, BIKE (Homo sapiens, UniProt Q9NSY1); experiment: kinome scan; type: binding; settings: 10 µM
T6 construct: purchased DiscoverX (KINOMEscan)

MERTK = molecular target: T7, MERTK (Homo sapiens, UniProt Q12866); experiment: kinome scan; type: binding; settings: 10 µM
T7 construct: purchased DiscoverX (KINOMEscan)

PHKG2 = molecular target: T8, PHKG2 (Homo sapiens, UniProt P15735); experiment: kinome scan; type: binding; settings: 10 µM
T8 construct: purchased DiscoverX (KINOMEscan)

CAMK1G = molecular target: T9, CAMK1G (Homo sapiens, UniProt Q96NX5); experiment: kinome scan; type: binding; settings: 10 µM
T9 construct: purchased DiscoverX (KINOMEscan)

ERBB3 = molecular target: T10, ERBB3 (Homo sapiens, UniProt P21860); experiment: kinome scan; type: binding; settings: 10 µM
T10 construct: purchased DiscoverX (KINOMEscan)

MEK5 = molecular target: T11, MEK5 (Homo sapiens, UniProt Q13163); experiment: kinome scan; type: binding; settings: 10 µM
T11 construct: purchased DiscoverX (KINOMEscan)

BMX = molecular target: T12, BMX (Homo sapiens, UniProt P51813); experiment: kinome scan; type: binding; settings: 10 µM
T12 construct: purchased DiscoverX (KINOMEscan)

[3] = molecular target: T13, RSK1(Kin.Dom.2-C-terminal) (Homo sapiens, UniProt Q15418); experiment: kinome scan; type: binding; settings: 10 µM
T13 construct: RSK1(Kin.Dom.2-C-terminal); purchased DiscoverX (KINOMEscan)

IRAK4 = molecular target: T14, IRAK4 (Homo sapiens, UniProt Q9NWZ3); experiment: kinome scan; type: binding; settings: 10 µM
T14 construct: purchased DiscoverX (KINOMEscan)

FER = molecular target: T15, FER (Homo sapiens, UniProt P16591); experiment: kinome scan; type: binding; settings: 10 µM
T15 construct: purchased DiscoverX (KINOMEscan)

PRKCI = molecular target: T16, PRKCI (Homo sapiens, UniProt P41743); experiment: kinome scan; type: binding; settings: 10 µM
T16 construct: purchased DiscoverX (KINOMEscan)

CSNK1G2 = molecular target: T17, CSNK1G2 (Homo sapiens, UniProt P78368); experiment: kinome scan; type: binding; settings: 10 µM
T17 construct: purchased DiscoverX (KINOMEscan)

YES = molecular target: T18, YES (Homo sapiens, UniProt P07947); experiment: kinome scan; type: binding; settings: 10 µM
T18 construct: purchased DiscoverX (KINOMEscan)

EGFR(G719S) = molecular target: T19, EGFR(G719S) (Homo sapiens, UniProt P00533, G719S); experiment: kinome scan; type: binding; settings: 10 µM
T19 construct: purchased DiscoverX (KINOMEscan)
T19 sequence (P00533 25-1210 G719S): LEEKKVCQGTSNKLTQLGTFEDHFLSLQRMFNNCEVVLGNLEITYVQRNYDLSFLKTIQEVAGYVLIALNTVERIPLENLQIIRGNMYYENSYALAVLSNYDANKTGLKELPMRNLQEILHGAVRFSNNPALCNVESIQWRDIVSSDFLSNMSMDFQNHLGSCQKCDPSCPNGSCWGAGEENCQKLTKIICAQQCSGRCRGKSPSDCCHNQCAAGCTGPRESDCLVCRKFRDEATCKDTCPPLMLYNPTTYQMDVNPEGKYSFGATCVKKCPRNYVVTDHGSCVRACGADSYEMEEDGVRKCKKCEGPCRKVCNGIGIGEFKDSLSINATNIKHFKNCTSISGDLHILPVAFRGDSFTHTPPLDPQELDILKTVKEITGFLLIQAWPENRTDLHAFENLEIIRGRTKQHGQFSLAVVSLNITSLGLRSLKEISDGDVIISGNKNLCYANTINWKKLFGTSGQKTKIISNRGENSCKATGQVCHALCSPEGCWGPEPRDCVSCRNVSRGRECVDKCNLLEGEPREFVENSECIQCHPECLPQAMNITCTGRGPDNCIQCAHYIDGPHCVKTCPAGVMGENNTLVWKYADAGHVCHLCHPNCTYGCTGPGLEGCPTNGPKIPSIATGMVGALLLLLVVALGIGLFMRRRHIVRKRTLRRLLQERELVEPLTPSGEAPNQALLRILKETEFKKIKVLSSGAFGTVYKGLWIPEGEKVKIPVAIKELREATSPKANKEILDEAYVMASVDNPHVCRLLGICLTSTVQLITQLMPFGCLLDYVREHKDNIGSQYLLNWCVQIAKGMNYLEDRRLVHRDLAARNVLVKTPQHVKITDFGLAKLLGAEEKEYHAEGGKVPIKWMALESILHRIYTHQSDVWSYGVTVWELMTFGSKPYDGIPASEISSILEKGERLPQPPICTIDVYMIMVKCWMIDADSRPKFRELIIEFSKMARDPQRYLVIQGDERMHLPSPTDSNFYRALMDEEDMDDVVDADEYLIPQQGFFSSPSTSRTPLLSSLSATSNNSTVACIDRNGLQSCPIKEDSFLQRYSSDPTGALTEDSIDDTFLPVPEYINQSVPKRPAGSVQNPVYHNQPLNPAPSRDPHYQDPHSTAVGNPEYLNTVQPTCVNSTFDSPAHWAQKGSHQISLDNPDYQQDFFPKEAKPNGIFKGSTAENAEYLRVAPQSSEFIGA

[4] = molecular target: T20, TYK2(JH1domain-catalytic) (Homo sapiens, UniProt P29597); experiment: kinome scan; type: binding; settings: 10 µM
T20 construct: TYK2(JH1domain-catalytic); purchased DiscoverX (KINOMEscan)
T20 sequence (P29597 888-1187 limits assumed): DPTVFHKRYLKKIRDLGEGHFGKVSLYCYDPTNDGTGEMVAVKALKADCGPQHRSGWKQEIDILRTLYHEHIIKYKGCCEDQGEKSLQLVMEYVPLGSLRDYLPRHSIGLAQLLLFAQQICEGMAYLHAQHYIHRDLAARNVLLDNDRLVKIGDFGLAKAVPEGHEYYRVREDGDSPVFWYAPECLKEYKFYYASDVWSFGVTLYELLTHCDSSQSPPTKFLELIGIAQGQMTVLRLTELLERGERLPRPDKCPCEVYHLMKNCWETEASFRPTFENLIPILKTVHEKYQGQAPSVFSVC

LIMK1 = molecular target: T21, LIMK1 (Homo sapiens, UniProt P53667); experiment: kinome scan; type: binding; settings: 10 µM
T21 construct: purchased DiscoverX (KINOMEscan)

BLK = molecular target: T22, BLK (Homo sapiens, UniProt P51451); experiment: kinome scan; type: binding; settings: 10 µM
T22 construct: purchased DiscoverX (KINOMEscan)

EGFR(G719C) = molecular target: T23, EGFR(G719C) (Homo sapiens, UniProt P00533, G719C); experiment: kinome scan; type: binding; settings: 10 µM
T23 construct: purchased DiscoverX (KINOMEscan)

MLK3 = molecular target: T24, MLK3 (Homo sapiens, UniProt Q16584); experiment: kinome scan; type: binding; settings: 10 µM
T24 construct: purchased DiscoverX (KINOMEscan)
T24 sequence (Q16584 whole entry): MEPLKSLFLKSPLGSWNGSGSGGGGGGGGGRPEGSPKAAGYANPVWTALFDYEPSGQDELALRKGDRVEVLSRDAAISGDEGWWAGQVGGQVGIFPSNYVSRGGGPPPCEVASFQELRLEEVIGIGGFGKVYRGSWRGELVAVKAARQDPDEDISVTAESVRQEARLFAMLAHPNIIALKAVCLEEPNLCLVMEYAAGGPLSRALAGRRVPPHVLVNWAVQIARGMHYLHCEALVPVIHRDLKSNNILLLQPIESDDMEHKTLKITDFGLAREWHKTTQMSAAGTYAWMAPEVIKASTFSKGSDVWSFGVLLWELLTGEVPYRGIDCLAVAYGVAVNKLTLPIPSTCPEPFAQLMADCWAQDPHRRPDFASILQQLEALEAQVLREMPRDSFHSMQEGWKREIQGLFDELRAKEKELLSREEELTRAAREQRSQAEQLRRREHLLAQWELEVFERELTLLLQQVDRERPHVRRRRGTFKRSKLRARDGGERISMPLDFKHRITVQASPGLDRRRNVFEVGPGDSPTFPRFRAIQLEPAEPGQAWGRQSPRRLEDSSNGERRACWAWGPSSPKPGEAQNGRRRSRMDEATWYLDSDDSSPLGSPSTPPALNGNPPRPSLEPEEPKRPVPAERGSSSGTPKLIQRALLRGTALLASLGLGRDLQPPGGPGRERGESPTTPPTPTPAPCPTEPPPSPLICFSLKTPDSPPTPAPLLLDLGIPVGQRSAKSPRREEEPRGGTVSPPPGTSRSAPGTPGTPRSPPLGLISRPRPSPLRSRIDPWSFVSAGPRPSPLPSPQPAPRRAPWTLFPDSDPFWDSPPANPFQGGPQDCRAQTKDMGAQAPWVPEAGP

LZK = molecular target: T25, LZK (Homo sapiens, UniProt O43283); experiment: kinome scan; type: binding; settings: 10 µM
T25 construct: purchased DiscoverX (KINOMEscan)

DAPK3 = molecular target: T26, DAPK3 (Homo sapiens, UniProt O43293); experiment: kinome scan; type: binding; settings: 10 µM
T26 construct: purchased DiscoverX (KINOMEscan)

LATS1 = molecular target: T27, LATS1 (Homo sapiens, UniProt O95835); experiment: kinome scan; type: binding; settings: 10 µM
T27 construct: purchased DiscoverX (KINOMEscan)
T27 sequence (O95835 whole entry): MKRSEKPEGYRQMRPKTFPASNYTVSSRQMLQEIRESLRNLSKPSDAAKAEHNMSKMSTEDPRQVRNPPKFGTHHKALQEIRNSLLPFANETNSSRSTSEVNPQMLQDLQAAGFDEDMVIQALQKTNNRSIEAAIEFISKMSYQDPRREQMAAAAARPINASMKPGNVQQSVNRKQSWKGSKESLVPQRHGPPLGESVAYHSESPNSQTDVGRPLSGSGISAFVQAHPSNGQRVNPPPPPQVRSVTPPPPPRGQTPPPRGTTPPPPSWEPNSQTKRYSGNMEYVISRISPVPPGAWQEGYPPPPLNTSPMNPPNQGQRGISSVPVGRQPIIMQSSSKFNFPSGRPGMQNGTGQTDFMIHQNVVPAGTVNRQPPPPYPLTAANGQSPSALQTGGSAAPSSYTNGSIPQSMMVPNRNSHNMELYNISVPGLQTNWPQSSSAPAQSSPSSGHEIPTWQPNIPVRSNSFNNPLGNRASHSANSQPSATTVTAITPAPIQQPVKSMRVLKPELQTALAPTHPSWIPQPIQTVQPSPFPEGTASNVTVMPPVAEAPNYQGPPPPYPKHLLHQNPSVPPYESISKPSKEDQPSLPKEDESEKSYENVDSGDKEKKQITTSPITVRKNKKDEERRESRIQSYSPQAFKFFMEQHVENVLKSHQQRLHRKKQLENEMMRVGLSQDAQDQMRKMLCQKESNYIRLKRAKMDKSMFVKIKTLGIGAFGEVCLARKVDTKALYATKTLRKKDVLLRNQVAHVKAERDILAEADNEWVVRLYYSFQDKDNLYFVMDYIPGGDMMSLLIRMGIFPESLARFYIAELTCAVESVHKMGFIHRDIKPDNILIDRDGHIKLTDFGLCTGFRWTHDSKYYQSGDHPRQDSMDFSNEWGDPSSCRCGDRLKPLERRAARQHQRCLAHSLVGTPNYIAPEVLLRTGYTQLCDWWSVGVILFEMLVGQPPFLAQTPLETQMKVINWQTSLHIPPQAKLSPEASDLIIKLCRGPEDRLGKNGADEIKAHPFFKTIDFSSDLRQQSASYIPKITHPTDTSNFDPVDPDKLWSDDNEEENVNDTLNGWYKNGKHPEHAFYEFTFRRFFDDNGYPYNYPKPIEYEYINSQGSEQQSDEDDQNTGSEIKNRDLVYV

CAMK2G = molecular target: T28, CAMK2G (Homo sapiens, UniProt Q13555); experiment: kinome scan; type: binding; settings: 10 µM
T28 construct: purchased DiscoverX (KINOMEscan)
T28 sequence (Q13555 whole entry): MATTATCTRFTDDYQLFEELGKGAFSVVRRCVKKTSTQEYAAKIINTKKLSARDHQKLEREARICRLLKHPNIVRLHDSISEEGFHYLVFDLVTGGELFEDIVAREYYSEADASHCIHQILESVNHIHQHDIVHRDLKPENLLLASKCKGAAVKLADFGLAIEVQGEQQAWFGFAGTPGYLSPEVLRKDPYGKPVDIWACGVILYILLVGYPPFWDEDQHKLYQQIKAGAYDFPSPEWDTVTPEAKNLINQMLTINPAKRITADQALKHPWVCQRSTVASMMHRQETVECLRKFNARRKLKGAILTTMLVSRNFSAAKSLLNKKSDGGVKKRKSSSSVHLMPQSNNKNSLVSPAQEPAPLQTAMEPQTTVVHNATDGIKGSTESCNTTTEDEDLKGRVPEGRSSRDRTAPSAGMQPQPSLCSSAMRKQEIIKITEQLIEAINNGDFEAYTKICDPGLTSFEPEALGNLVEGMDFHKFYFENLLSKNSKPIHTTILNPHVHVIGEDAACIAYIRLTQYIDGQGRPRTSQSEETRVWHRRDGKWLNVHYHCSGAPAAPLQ

CDKL2 = molecular target: T29, CDKL2 (Homo sapiens, UniProt Q92772); experiment: kinome scan; type: binding; settings: 10 µM
T29 construct: purchased DiscoverX (KINOMEscan)

[5] = molecular target: T30, RSK3(Kin.Dom.1-N-terminal) (Homo sapiens, UniProt Q15349); experiment: kinome scan; type: binding; settings: 10 µM
T30 construct: RSK3(Kin.Dom.1-N-terminal); purchased DiscoverX (KINOMEscan)

SRPK2 = molecular target: T31, SRPK2 (Homo sapiens, UniProt P78362); experiment: kinome scan; type: binding; settings: 10 µM
T31 construct: purchased DiscoverX (KINOMEscan)

YANK1 = molecular target: T32, YANK1 (Homo sapiens, UniProt Q8WU08); experiment: kinome scan; type: binding; settings: 10 µM
T32 construct: purchased DiscoverX (KINOMEscan)

CAMK1 = molecular target: T33, CAMK1 (Homo sapiens, UniProt Q14012); experiment: kinome scan; type: binding; settings: 10 µM
T33 construct: purchased DiscoverX (KINOMEscan)

[6] = test system: Tau Fibril Formation, Thioflavin T Binding; design: method as in CHEMBL1614421; settings: reported activity, data mining; ref CHEMBL1614421; cited from earlier work
[7] = molecular target: T34, RSK3(Kin.Dom.2-C-terminal) (Homo sapiens, UniProt Q15349); experiment: kinome scan; type: binding; settings: 10 µM
T34 construct: RSK3(Kin.Dom.2-C-terminal); purchased DiscoverX (KINOMEscan)

FLT3 = molecular target: T35, FLT3 (Homo sapiens, UniProt P36888); experiment: kinome scan; type: binding
T35 construct: purchased DiscoverX (KINOMEscan)
T35 sequence (P36888 27-993): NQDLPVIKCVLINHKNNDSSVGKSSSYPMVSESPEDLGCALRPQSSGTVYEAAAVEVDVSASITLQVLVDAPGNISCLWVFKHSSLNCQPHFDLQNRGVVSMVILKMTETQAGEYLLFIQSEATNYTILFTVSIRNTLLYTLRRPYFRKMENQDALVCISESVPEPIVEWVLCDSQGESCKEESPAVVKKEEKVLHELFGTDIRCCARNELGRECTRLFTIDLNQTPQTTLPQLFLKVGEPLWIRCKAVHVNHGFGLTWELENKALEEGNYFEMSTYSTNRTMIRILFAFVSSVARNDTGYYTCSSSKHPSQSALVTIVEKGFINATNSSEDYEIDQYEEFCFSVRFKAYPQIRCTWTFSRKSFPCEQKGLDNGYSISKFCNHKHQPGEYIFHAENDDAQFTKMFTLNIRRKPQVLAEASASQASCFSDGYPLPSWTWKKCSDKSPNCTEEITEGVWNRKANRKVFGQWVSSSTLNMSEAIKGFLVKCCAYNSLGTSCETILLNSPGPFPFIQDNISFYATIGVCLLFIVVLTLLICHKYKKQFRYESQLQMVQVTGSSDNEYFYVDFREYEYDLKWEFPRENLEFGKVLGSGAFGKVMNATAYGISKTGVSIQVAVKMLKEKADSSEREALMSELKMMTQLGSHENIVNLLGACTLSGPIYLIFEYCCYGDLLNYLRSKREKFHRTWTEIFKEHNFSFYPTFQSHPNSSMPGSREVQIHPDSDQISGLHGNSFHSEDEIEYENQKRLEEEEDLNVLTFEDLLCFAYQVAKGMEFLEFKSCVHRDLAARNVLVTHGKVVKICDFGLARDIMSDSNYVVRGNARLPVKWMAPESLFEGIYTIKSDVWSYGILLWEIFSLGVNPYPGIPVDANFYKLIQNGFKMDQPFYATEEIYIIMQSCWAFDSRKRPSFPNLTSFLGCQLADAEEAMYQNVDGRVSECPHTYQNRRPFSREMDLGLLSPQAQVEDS

**Q.** With `Nc1ccc(N=Nc2ccccc2)c(N)n1` [phenazopyridine, 2,6-diamino-3-(phenylazo)pyridine] as the compound, how does the kinase inhibition (PAK4) read?
**A.** 100

**Q.** And the kinase inhibition (QSK)?
**A.** 94

**Q.** What about the remaining activity at 10 µM [1] of the same compound?
**A.** 20%

**Q.** What about the remaining activity at 10 µM [2] of the same compound?
**A.** 49%

**Q.** What about the “remaining binding (% of control)” value (RIOK1) of the same compound?
**A.** 93

**Q.** What about the kinase inhibition (PDGFRB) of the same compound?
**A.** 44

**Q.** What about the kinase inhibition (PRKCE) of the same compound?
**A.** 100

**Q.** What about the kinase inhibition (BIKE) of the same compound?
**A.** 99

**Q.** What about the kinase inhibition (MERTK) of the same compound?
**A.** 100

**Q.** What about the kinase inhibition (PHKG2) of the same compound?
**A.** 100

**Q.** And the kinase inhibition (CAMK1G)?
**A.** 88

**Q.** What about the kinase inhibition (ERBB3) of the same compound?
**A.** 91

**Q.** What about the kinase inhibition (MEK5) of the same compound?
**A.** 90

**Q.** What about the kinase inhibition (BMX) of the same compound?
**A.** 100

**Q.** What about the kinase inhibition [3] of the same compound?
**A.** 86

**Q.** What about the kinase inhibition (IRAK4) of the same compound?
**A.** 100

**Q.** What about the kinase inhibition (FER) of the same compound?
**A.** 100

**Q.** And the kinase inhibition (PRKCI)?
**A.** 100

**Q.** And the kinase inhibition (CSNK1G2)?
**A.** 82

**Q.** What about the kinase inhibition (YES) of the same compound?
**A.** 100

**Q.** What about the kinase inhibition (EGFR(G719S)) of the same compound?
**A.** 92

**Q.** What about the “remaining binding (% of control)” value [4] of the same compound?
**A.** 100

**Q.** And the kinase inhibition (LIMK1)?
**A.** 100

**Q.** And the “remaining binding (% of control)” value (BLK)?
**A.** 100

**Q.** And the kinase inhibition (EGFR(G719C))?
**A.** 80

**Q.** And the kinase inhibition (MLK3)?
**A.** 100

**Q.** And the kinase inhibition (LZK)?
**A.** 100

**Q.** What about the kinase inhibition (DAPK3) of the same compound?
**A.** 100

**Q.** What about the kinase inhibition (LATS1) of the same compound?
**A.** 87

**Q.** And the kinase inhibition (CAMK2G)?
**A.** 100

**Q.** What about the kinase inhibition (CDKL2) of the same compound?
**A.** 85

**Q.** What about the kinase inhibition [5] of the same compound?
**A.** 100

**Q.** What about the kinase inhibition (SRPK2) of the same compound?
**A.** 100

**Q.** What about the kinase inhibition (YANK1) of the same compound?
**A.** 98

**Q.** What about the kinase inhibition (CAMK1) of the same compound?
**A.** 100

**Q.** And the Concentration [6]?
**A.** 3.9 µM

**Q.** What about the kinase inhibition [7] of the same compound?
**A.** 100

**Q.** What about the “remaining binding (% of control)” value (FLT3; 10 µM) of the same compound?
**A.** 25

**Q.** What about the remaining binding at 10 µM (FLT3; read-out: % Of control) of the same compound?
**A.** 25%
